Experimental data: patent US9193722B2, “Tri-cyclic pyrazolopyridine kinase inhibitors” (Vertex Pharmaceuticals Incorporated, priority 2008, dated 2015)

How the values were obtained:
Type in all cases: biochemical
PKC theta kinase = PKC theta kinase (Homo sapiens, UniProt Q04759); assay: PKC theta kinase inhibition, coupled-enzyme (NADH absorbance) assay, Ki; settings: 240 μM ATP, 18 nM PKC theta kinase, 30° C.
Summary of the method: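 Coupled-enzyme kinase assay following NADH absorbance at 340 nm, in 100 mM HEPES pH 7.5, 10 mM MgCl2, 25 mM NaCl, 0.1 mM EDTA, 0.01% Brij. Compound in DMSO preincubated with enzyme 10 min at 30 °C. Ki from initial rates by non-linear regression.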

PKC delta kinase = PKC delta kinase (Homo sapiens, UniProt Q05655); assay: PKC delta kinase inhibition, coupled-enzyme (NADH absorbance) assay, Ki; settings: 150 μM ATP, 46 nM PKC delta kinase, 30° C.; read-out: Ki PKC delta
Chain of PKC delta kinase (Q05655 whole entry): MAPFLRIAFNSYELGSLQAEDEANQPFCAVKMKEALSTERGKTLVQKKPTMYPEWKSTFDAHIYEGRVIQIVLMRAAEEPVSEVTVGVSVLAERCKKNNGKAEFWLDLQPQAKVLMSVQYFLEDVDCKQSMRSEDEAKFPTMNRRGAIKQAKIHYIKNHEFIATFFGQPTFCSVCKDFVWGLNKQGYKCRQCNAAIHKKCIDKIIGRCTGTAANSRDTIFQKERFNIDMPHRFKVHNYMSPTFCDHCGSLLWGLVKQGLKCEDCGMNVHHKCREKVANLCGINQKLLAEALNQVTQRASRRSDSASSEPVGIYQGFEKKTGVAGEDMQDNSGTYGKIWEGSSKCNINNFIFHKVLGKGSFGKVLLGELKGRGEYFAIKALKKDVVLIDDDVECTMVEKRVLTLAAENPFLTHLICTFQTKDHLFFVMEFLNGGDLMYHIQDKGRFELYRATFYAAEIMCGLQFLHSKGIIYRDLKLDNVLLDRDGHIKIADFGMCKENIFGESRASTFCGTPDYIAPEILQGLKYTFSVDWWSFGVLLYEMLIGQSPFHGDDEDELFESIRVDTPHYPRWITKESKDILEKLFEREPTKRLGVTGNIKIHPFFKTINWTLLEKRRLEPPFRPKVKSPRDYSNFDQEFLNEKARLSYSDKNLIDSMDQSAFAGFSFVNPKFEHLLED
Summary of the method: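 PKC delta in 100 mM HEPES pH 7.5, 10 mM MgCl2, 25 mM NaCl, 0.1 mM EDTA, 0.01% Brij, equilibrated 10 min at 30° C with compound from DMSO stock. Started with ATP at 150 μM final; NADH-coupled absorbance at 340 nm followed 15 min at 30° C. Ki from initial rates by non-linear regression.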

PKC alpha kinase = PKC alpha kinase (Homo sapiens, UniProt P17252); assay: PKC alpha kinase inhibition, coupled-enzyme (NADH absorbance) assay, Ki; settings: 130 μM ATP, 4.5 nM PKC alpha kinase, 30° C.
Summary of the method: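 Enzyme in 100 mM HEPES pH 7.5, 10 mM MgCl2, 100 μM CaCl2, 0.01% Brij, preincubated with compound 10 min at 30 °C. Reaction started with 130 μM ATP (final); NADH consumption followed at 340 nm for 15 min at 30 °C. Ki fitted by non-linear regression of initial rates.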

Chain of PKC theta kinase (Q04759 whole entry): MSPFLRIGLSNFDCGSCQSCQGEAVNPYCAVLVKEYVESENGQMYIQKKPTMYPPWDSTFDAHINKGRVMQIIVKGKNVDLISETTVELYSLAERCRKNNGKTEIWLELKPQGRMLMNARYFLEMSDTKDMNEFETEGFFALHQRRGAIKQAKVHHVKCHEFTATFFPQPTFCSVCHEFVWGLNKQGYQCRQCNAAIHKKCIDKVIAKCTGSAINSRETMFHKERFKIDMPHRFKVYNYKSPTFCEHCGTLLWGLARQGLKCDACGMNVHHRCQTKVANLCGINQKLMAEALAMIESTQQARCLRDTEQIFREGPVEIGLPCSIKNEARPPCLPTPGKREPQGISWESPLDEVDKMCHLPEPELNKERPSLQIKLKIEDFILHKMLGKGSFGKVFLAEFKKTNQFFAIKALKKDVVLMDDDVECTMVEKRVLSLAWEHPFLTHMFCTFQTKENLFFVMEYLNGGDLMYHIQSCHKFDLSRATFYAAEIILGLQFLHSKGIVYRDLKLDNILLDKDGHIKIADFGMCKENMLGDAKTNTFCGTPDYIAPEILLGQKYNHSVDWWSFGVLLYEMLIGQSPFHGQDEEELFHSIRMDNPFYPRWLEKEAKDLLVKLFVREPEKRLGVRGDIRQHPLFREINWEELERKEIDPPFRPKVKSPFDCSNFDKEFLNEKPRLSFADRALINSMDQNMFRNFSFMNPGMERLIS

Ki (PKC theta kinase) [nM]	Ki (PKC delta kinase) [nM]	Ki (PKC alpha kinase) [nM]	SMILES
> 700	> 1250	> 1250	CC(C)(N)C1CCN(c2ccc(C(F)(F)F)c(-c3n[nH]c4ncccc34)n2)C1 (stereo not drawn) [Compound 361]
< 500	> 1250	> 1250	NC[C@H]1CCN(c2ccc(F)c(-c3n[nH]c4ncccc34)n2)C1 [Compound 362]
> 700	> 1250	> 1250	NCC1CN(c2ccc(C(F)(F)F)c(-c3n[nH]c4ncccc34)n2)C1 [Compound 363]
< 500	> 1250	> 1250	CC(C)C[C@@H]1C[C@H](N)CN(c2ccc(C(F)(F)F)c(-c3n[nH]c4ncccc34)n2)C1 [Compound 364]
< 500	> 1250	> 1250	CC(C)C[C@@H]1C[C@@H](N)CN(c2ccc(C(F)(F)F)c(-c3n[nH]c4ncccc34)n2)C1 [Compound 365]
< 50	< 2800	> 1250	CC(C)C[C@@H]1C[C@H](N)CN(c2ccc(F)c(-c3n[nH]c4ncccc34)n2)C1 [Compound 366]
< 50	< 2800	> 1250	CC(C)C[C@@H]1C[C@@H](N)CN(c2ccc(F)c(-c3n[nH]c4ncccc34)n2)C1 [Compound 367]
< 500	> 1250	> 1250	NC1CCN(c2ccc(F)c(-c3n[nH]c4ncccc34)n2)CC1 [Compound 368]
< 500	> 1250	> 1250	CNC1CCN(c2ccc(F)c(-c3n[nH]c4ncccc34)n2)CC1 [Compound 369]
< 50	< 2800	> 1250	CC(C)CC1CN(c2ccc(F)c(-c3n[nH]c4ncccc34)n2)CCC1C#N (stereo not drawn) [Compound 370]
> 700	> 1250	> 1250	CS(=O)(=O)NCC1CCCN(c2ccc(F)c(-c3n[nH]c4ncccc34)n2)C1 (stereo not drawn) [Compound 371]
> 700	> 1250	> 1250	CS(=O)(=O)NCC1CCCN(c2ccc(C(F)(F)F)c(-c3n[nH]c4ncccc34)n2)C1 (stereo not drawn) [Compound 372]
< 1	< 50	< 500	CC(C)C(C)(O)C1CN(c2nc(-c3n[nH]c4ncccc34)ccc2F)CCN1 (stereo not drawn) [Compound 373]
< 50	< 500	> 1250	CC(C)C(C)(O)C1CN(c2nc(-c3n[nH]c4ncccc34)ccc2F)CCN1 (stereo not drawn) [Compound 374]
< 1	< 50	< 2800	CC(C)C(C)(O)C1CN(c2nc(-c3n[nH]c4ncccc34)ccc2F)CCN1 (stereo not drawn) [Compound 375]
< 50	< 500	> 1250	CC(C)C(C)(O)C1CN(c2nc(-c3n[nH]c4ncccc34)ccc2F)CCN1 (stereo not drawn) [Compound 376]
< 500	< 2800	> 1250	CCC(N)(CC)C1CCCN(c2ccc(F)c(-c3n[nH]c4ncccc34)n2)C1 (stereo not drawn) [Compound 377]
< 50	< 500	< 2800	CCC(C)(C)C(N)C1CCCN(c2ccc(F)c(-c3n[nH]c4ncccc34)n2)C1 (stereo not drawn) [Compound 378]
< 500	> 1250	> 1250	CCC(C)(C)C(N)C1CCCN(c2ccc(F)c(-c3n[nH]c4ncccc34)n2)C1 (stereo not drawn) [Compound 379]
< 50	> 1250	> 1250	CC1(C)CC1(O)C1CN(c2ccc(F)c(-c3n[nH]c4ncccc34)n2)CCN1 (stereo not drawn) [Compound 380]
< 1	< 500	< 500	CC1(C)CC1(O)C1CN(c2ccc(F)c(-c3n[nH]c4ncccc34)n2)CCN1 (stereo not drawn) [Compound 381]

Ki (PKC theta kinase) [nM]	Ki (PKC delta kinase) [nM]	Ki (PKC alpha kinase) [nM]	SMILES
< 500	> 1250	> 1250	CC1(C)CC1(O)C1CN(c2ccc(F)c(-c3n[nH]c4ncccc34)n2)CCN1 (stereo not drawn) [Compound 382]
< 500	> 1250	> 1250	CC1(C)CC1(O)C1CN(c2ccc(F)c(-c3n[nH]c4ncccc34)n2)CCN1 (stereo not drawn) [Compound 383]
< 500	> 1250	> 1250	CO[C@H]1CN(c2ccc(C(F)(F)F)c(-c3n[nH]c4ncccc34)n2)CC[C@H]1N [Compound 384]
< 50	< 500	< 500	CC(C)CC1(C)CN(c2ccc(F)c(-c3n[nH]c4ncccc34)n2)CCC1N (stereo not drawn) [Compound 385]
< 50	< 500	< 2800	CC(C)CC1CN(c2ccc(F)c(-c3n[nH]c4ncccc34)n2)CCC1CN (stereo not drawn) [Compound 386]
< 500	> 1250	> 1250	NCC1CN(c2ccc(F)c(-c3n[nH]c4ncccc34)n2)C1 [Compound 387]
< 500	< 2800	< 2800	CO[C@H]1CN(c2ccc(F)c(-c3n[nH]c4ncccc34)n2)CC[C@H]1N [Compound 389]
< 50	> 1250	> 1250	CC(C)(C(N)C1CCCN(c2ccc(F)c(-c3n[nH]c4ncccc34)n2)C1)C(F)(F)F (stereo not drawn) [Compound 390]
< 50	< 2800	> 1250	CCC(CC)C(N)C1CCCN(c2ccc(F)c(-c3n[nH]c4ncccc34)n2)C1 (stereo not drawn) [Compound 391]
< 1	< 50	< 2800	CC(C)(C(N)C1CCCN(c2ccc(F)c(-c3n[nH]c4ncccc34)n2)C1)C(F)(F)F (stereo not drawn) [Compound 393]
< 500	> 1250	> 1250	CC(C)(C(N)C1CCCN(c2ccc(F)c(-c3n[nH]c4ncccc34)n2)C1)C(F)(F)F (stereo not drawn) [Compound 394]
< 500	> 1250	> 1250	NCC1CN(c2ccc(F)c(-c3n[nH]c4ncccc34)n2)CCO1 (stereo not drawn) [Compound 395]
> 700	> 1250	> 1250	CC(C)CC1(C)C=CCN(c2ccc(C(F)(F)F)c(-c3n[nH]c4ncccc34)n2)C1 (stereo not drawn) [Compound 396]
< 500	< 500	< 2800	CC(C)CC1(CN)CN(c2ccc(C(F)(F)F)c(-c3n[nH]c4ncccc34)n2)CCO1 (stereo not drawn) [Compound 397]
> 700	> 1250	> 1250	NC(=O)C1(N)CCN(c2ccc(C(F)(F)F)c(-c3n[nH]c4ncccc34)n2)CC1 [Compound 398]
> 700	> 1250	> 1250	NC(=O)C1(N)CCN(c2ccc(F)c(-c3n[nH]c4ncccc34)n2)CC1 [Compound 399]
< 50	< 2800	> 1250	CC(C)CC1(O)CN(c2ccc(F)c(-c3n[nH]c4ncccc34)n2)CCC1C#N (stereo not drawn) [Compound 400]
< 50	< 2800	> 1250	CC(C)CC1(O)CN(c2ccc(C(F)(F)F)c(-c3n[nH]c4ncccc34)n2)CCC1C#N (stereo not drawn) [Compound 401]
< 500	< 500	> 1250	COC(=O)C1(CC(C)C)CN(c2ccc(C(F)(F)F)c(-c3n[nH]c4ncccc34)n2)CCC1N (stereo not drawn) [Compound 402]
< 50	< 500	> 1250	CCC1(CN)CN(c2ccc(C(F)(F)F)c(-c3n[nH]c4ncccc34)n2)CCO1 (stereo not drawn) [Compound 403]
< 500	< 500	< 2800	CCCC1(CN)CN(c2ccc(C(F)(F)F)c(-c3n[nH]c4ncccc34)n2)CCO1 (stereo not drawn) [Compound 404]
